The source of these data is patent US8785486B2, “Imidazo[1,2-A]pyridine derivatives and their use as positive allosteric modulators of mGluR2 receptors” (Janssen Pharmaceuticals, Inc., priority 2007, dated 2014).

T1 sequence (Q14416 19-872): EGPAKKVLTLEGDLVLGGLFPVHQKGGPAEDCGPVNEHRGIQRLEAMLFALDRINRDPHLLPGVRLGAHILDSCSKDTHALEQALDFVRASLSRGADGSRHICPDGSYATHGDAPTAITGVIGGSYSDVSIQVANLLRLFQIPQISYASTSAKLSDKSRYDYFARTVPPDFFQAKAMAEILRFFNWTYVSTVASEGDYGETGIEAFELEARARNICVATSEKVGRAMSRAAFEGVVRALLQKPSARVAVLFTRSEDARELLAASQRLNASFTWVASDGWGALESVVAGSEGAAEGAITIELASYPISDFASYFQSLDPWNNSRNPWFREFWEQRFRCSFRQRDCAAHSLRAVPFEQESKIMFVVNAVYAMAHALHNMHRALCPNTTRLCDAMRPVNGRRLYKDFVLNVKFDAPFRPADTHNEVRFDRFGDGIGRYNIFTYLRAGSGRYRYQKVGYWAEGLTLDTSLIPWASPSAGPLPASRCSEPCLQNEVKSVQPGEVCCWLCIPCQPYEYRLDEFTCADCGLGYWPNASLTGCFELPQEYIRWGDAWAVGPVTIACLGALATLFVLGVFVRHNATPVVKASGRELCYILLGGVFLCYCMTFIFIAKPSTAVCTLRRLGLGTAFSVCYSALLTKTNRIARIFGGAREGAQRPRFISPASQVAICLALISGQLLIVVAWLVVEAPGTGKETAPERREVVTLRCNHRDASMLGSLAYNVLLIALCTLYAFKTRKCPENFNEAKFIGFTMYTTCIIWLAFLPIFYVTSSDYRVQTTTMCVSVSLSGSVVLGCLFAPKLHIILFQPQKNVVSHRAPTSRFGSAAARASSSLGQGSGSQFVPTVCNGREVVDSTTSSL

One test has as its target T1, human mGluR2 receptor (Homo sapiens, UniProt Q14416).
T1 construct: expressed in transfected cells; host or cells: CHO cells
Briefly: [35S]GTPγS binding assay (PAM assay) using membranes from cells transfected with the human mGluR2 receptor. Type of test: biochemical. Conditions: membranes of CHO cells with human mGluR2; glutamate at predetermined EC25 concentration; averages of duplicate values of 11-concentration response curves. On the procedure: The [^35S]GTPγS binding assay is a functional membrane-based assay used to study G-protein coupled receptor (GPCR) function whereby incorporation of a non-hydrolysable form of GTP, [^35S]GTPγS (guanosine 5′-triphosphate, labelled with […] ^35S), is measured.
CHO-cells were cultured to pre-confluence and stimulated with 5 mM butyrate for 24 hours, prior to washing in PBS, and then collection by scraping in homogenisation buffer (50 mM Tris-HCl buffer, pH 7.4, 4° C.). Cell lysates were homogenized briefly (15 s) using an ultra-turrax homogenizer. The homogenate was centrifuged at 23 500×g for 10 minutes and the supernatant discarded. The pellet was resuspended in 5 mM Tris-HCl, pH 7.4 and centrifuged again (30 000×g, 20 min, 4° C.). The final pellet was resuspended in 50 mM HEPES, pH 7.4 and stored at −80° C. in appropriate aliquots before use. Protein concentration was determined by the Bradford method (Bio-Rad, USA) with bovine serum albumin as standard.
Measurement of mGluR2 positive allosteric modulatory activity of test compounds in membranes containing human mGluR2 was performed using frozen membranes that were thawed and briefly homogenised prior to pre-incubation in 96-well microplates (15 μg/assay well, 30 minutes, 30° C.) in assay buffer (50 mM HEPES pH 7.4, 100 mM NaCl, 3 mM MgCl2, 50 μM GDP, 10 μg/ml saponin,) with increasing concentrations of positive allosteric modulator (from 0.3 nM to 50 μM) and either a minimal pre-determined concentration of glutamate (PAM assay), or no added glutamate. […] After addition of [^35S]GTPγS (0.1 nM, f.c.) to achieve a total reaction volume of 200 μl, microplates were shaken briefly and further incubated to allow [^35S]GTPγS incorporation on activation (30 minutes, 30° C.). The reaction was stopped by rapid vacuum filtration over glass-fibre filter plates (Unifilter 96-well GF/B filter plates, Perkin-Elmer, Downers Grove, USA) microplate using a 96-well plate cell harvester (Filtermate, Perkin-Elmer, USA), and then by washing three times with 300 μl of ice-cold wash buffer (Na2PO4.2H2O 10 mM, NaH2PO4.H2O 10 mM, pH=7.4). Filters were then air-dried, and 40 μl of liquid scintillation cocktail (Microscint-O) was added to each well, and membrane-bound [^35S]GTPγS was measured in a 96-well scintillation plate reader (Top-Count, Perkin-Elmer, USA). Non-specific [^35S]GTPγS binding is determined in the presence of cold 10 μM GTP. Each curve was performed at least once using duplicate sample per data point and at 11 concentrations.
The concentration-response curves of representative compounds of the present invention in the presence of added EC25 of mGluR2 agonist glutamate to determine positive allosteric modulation (PAM), were generated using the Prism GraphPad software (Graph Pad Inc, San Diego, USA). The curves were fitted to a four-parameter logistic equation (Y=Bottom+(Top-Bottom)/(1+10^((Log EC50−X)*Hill Slope) allowing determination of EC50 values. The EC50 is the concentration of a compound that causes a half-maximal potentiation of the glutamate response. This is calculated by subtracting the maximal responses of glutamate in presence of a fully saturating concentration of a positive allosteric modulator from the response of glutamate in absence of a positive allosteric modulator. The concentration producing the half-maximal effect is then calculated as EC50
Turning to `N#Cc1c(N2CCN(c3ncccn3)CC2)ccn2c(CCC3CC3)cnc12` [Example 55], the “GTPγS - hR2 PAM pEC50” value came to 5.96.
Turning to `CC(C)(C)c1ccc(-c2ccn3c(CC(F)(F)F)cnc3c2C#N)cc1` [Example 88], the “GTPγS - hR2 PAM pEC50” value was found to be 6.35.
Same read-out and setting: in the case of `N#Cc1c(-c2ccc(NC3CC3)c(Cl)c2)ccn2c(CC(F)(F)F)cnc12` [Example 105, 7-(3-Chloro-4-cyclopropylamino-phenyl)-3-(2,2,2-trifluoro-ethyl)-imidazo[1,2-a]pyridine-8-carbonitrile] it was 6.85.
Take `N#Cc1c(-c2ccc(N3CCCCC3)cc2)ccn2c(CC(F)(F)F)cnc12` [Example 107]: the “GTPγS - hR2 PAM pEC50” value amounted to 6.63.
In the case of `N#Cc1c(-c2ccc(N3CCOCC3)c(Cl)c2)ccn2c(CC(F)(F)F)cnc12` [Example 110], the “GTPγS - hR2 PAM pEC50” value came to 5.67.

The test is the same for the next values; noted with them: membranes of CHO cells with human mGluR2; glutamate at predetermined EC25 concentration; averages of duplicate values of 11-concentration response curves; read-out: GTPγS - hR2 PAM pEC50 (converted).
Take `N#Cc1c(CN2CCC(c3ccccc3)CC2)ccn2c(-c3ccccc3)cnc12` [Example 1, 3-Phenyl-7-(4-phenyl-piperidin-1-ylmethyl)-imidazo[1,2-a]pyridine-8-carbonitrile]: the EC50 was 513 nM.
The same measure, in the same setting: in the case of `N#Cc1c(N2CCC(c3ccccc3)CC2)ccn2c(CC(F)(F)F)cnc12` [Example 3, 7-(4-Phenyl-piperidin-1-yl)-3-(2,2,2-trifluoro-ethyl)-imidazo[1,2-a]pyridine-8-carbonitrile] it was 123 nM.
Still for that read-out and setting: as for `Cc1cc(Oc2ccc(-c3ccn4c(CC(F)(F)F)cnc4c3C#N)c(F)c2)ccn1` [Example 4, 7-[2-Fluoro-4-(2-methyl-pyridin-4-yloxy)-phenyl]-3-(2,2,2-trifluoro-ethyl)-imidazo[1,2-a]pyridine-8-carbonitrile], the figure is 692 nM; as for `N#Cc1c(N2CCC(c3ccccc3)CC2)ccn2c(Cc3ccccc3)cnc12` [Example 7], 178 nM; as for `N#Cc1c(N2CCC(c3ccccc3)CC2)ccn2c(-c3ccccc3)cnc12` [Example 10], 398 nM.
For the compound `Cc1cc(Oc2ccc(-c3ccn4c(CC(F)(F)F)cnc4c3C#N)cc2)ccn1` [Example 13], the EC50 is 589 nM.
Consider `Cc1cc(Oc2ccc(-c3ccn4c(CC(F)(F)F)cnc4c3C#N)cc2F)ccn1` [Example 17], for which the EC50 was 1120 nM.
For `CCc1cnc2c(C#N)c(-c3ccc(Oc4ccnc(C)c4)cc3)ccn12` [Example 18], the EC50 was 1320 nM.
For `N#Cc1c(CN2CCC(c3ccccc3)CC2)ccn2c(CC(F)(F)F)cnc12` [Example 27], the EC50 was 295 nM.
`N#Cc1c(N2CCC(c3ccccc3)CC2)ccn2c(C(F)(F)F)cnc12` [Example 29, 7-(4-Phenyl-piperidin-1-yl)-3-trifluoromethyl-imidazo[1,2-a]pyridine-8-carbonitrile]: the EC50 is 776 nM.
As to `N#Cc1c(CN2CCN(c3ccc(F)cc3F)CC2)ccn2c(CC(F)(F)F)cnc12` [Example 39], the EC50 is 1380 nM.
Regarding `FC(F)(F)Cc1cnc2c(Cl)c(CN3CCC(c4ccccc4)CC3)ccn12` [Example 42], the EC50 was 562 nM.
Same read-out and setting: in the case of `N#Cc1c(N2CCC(c3ccccc3)CC2)ccn2c(C3CC3)cnc12` [Example 49] it was 676 nM; in that of `N#Cc1c(N2CCN(c3ccc(F)cc3F)CC2)ccn2c(CC(F)(F)F)cnc12` [Example 52], 275 nM; in that of `Cc1cccnc1N1CCN(c2ccn3c(CC(F)(F)F)cnc3c2C#N)CC1` [Example 53], 1350 nM.
For the compound `Cc1cnc(N2CCN(c3ccn4c(CC(F)(F)F)cnc4c3C#N)CC2)nc1` [Example 56], the EC50 was 646 nM.
As to `N#Cc1c(N2CCC(c3ccc(N4CCOCC4)cc3)CC2)ccn2c(CC(F)(F)F)cnc12` [Example 57], the EC50 is 479 nM.
For the compound `CC(O)c1ccc(C2CCN(c3ccn4c(CC(F)(F)F)cnc4c3C#N)CC2)cc1` (stereo not drawn) [Example 59], the EC50 was 372 nM.
In the case of `Cc1ccnc(N2CCN(c3ccn4c(CC(F)(F)F)cnc4c3C#N)CC2)n1` [Example 60], the EC50 was 525 nM.
On the same count and under the same terms, as for `COc1c(F)cccc1C1CCN(c2ccn3c(CC(F)(F)F)cnc3c2C#N)CC1` [Example 61, 7-[4-(3-Fluoro-2-methoxy-phenyl)-piperidin-1-yl]-3-(2,2,2-trifluoro-ethyl)-imidazo[1,2-a]pyridine-8-carbonitrile], the figure is 37.2 nM.
The same measure, in the same setting: in the case of `COc1cccc(F)c1C1CCN(c2ccn3c(CC(F)(F)F)cnc3c2C#N)CC1` [Example 69] it was 9.77 nM; in that of `Fc1ccc(Oc2ccc(-c3ccn4c(CC(F)(F)F)cnc4c3Cl)cc2)cc1` [Example 70], 269 nM; in that of `N#Cc1c(-c2ccc(C(F)(F)c3ccccc3)cc2)ccn2c(CC(F)(F)F)cnc12` [Example 72], 214 nM.
The same measure, in the same setting: in the case of `N#Cc1c(-c2ccc(Oc3ccccc3)c(F)c2)ccn2c(CC(F)(F)F)cnc12` [Example 76] it was 269 nM; in that of `N#Cc1c(-c2ccc(Oc3ccc(C(=O)O)cc3)cc2)ccn2c(CC(F)(F)F)cnc12` [Example 83], 676 nM.
Turning to `N#Cc1c(-c2ccc(OC3CCCC3)c(Cl)c2)ccn2c(CC(F)(F)F)cnc12` [Example 84], the EC50 is 302 nM.
In the case of `CC(C)(O)COc1ccc(-c2ccn3c(CC(F)(F)F)cnc3c2C#N)cc1Cl` [Example 86], the EC50 is 3160 nM.
In the case of `CC(C)Oc1ccc(-c2ccn3c(CC(F)(F)F)cnc3c2C#N)cc1Cl` [Example 87], the EC50 was 309 nM.
Regarding `N#Cc1c(-c2ccc(OC3CCOCC3)c(Cl)c2)ccn2c(CC(F)(F)F)cnc12` [Example 90], the EC50 is 676 nM.
The same measure, in the same setting: as for `N#Cc1c(-c2ccc(N[C@H]3CC[C@@H](O)CC3)c(Cl)c2)ccn2c(CC(F)(F)F)cnc12` [Example 95, (cis)-7-[3-Chloro-4-(4-hydroxy-cyclohexylamino)-phenyl]-3-(2,2,2-trifluoro-ethyl)-imidazo[1,2-a]pyridine-8-carbonitrile], the figure is 186 nM; as for `C[C@]1(O)CC[C@H](Oc2ccc(-c3ccn4c(CC(F)(F)F)cnc4c3C#N)cc2Cl)CC1` [Example 97], 603 nM.
As to `CC1(O)CCC(Nc2ccc(-c3ccn4c(CC(F)(F)F)cnc4c3Cl)cc2Cl)CC1` (stereo not drawn) [Example 98, 4-{2-Chloro-4-[8-chloro-3-(2,2,2-trifluoro-ethyl)-imidazo[1,2-a]pyridin-7-yl]-phenylamino}-1-methyl-cyclohexanol], the EC50 was 490 nM.
The same measure, in the same setting: in the case of `N#Cc1c(-c2ccc(O[C@H]3CC[C@H](O)CC3)c(Cl)c2)ccn2c(CC(F)(F)F)cnc12` [Example 102] it was 851 nM.
Still for that read-out and setting: as for `C[C@]1(O)CC[C@@H](Oc2ccc(-c3ccn4c(CC(F)(F)F)cnc4c3C#N)cc2Cl)CC1` [Example 104], the figure is 1050 nM; as for `N#Cc1c(-c2ccc(NC3CC3)c(F)c2)ccn2c(CC(F)(F)F)cnc12` [Example 106], 6310 nM.
In the case of `N#Cc1c(-c2ccc(N3CCCC3)c(Cl)c2)ccn2c(CC(F)(F)F)cnc12` [Example 108], the EC50 was 457 nM.
On the same count and under the same terms, as for `FC(F)(F)Cc1cnc2c(Cl)c(-c3ccc(N4CCCCC4)cc3)ccn12` [Example 109], the figure is 275 nM; as for `N#Cc1c(-c2ccc(N3CCC(O)CC3)cc2)ccn2c(CC(F)(F)F)cnc12` [Example 111], 1050 nM.
On the same count and under the same terms, in the case of `N#Cc1c(-c2ccc(COc3ccccc3F)cc2)ccn2c(CC(F)(F)F)cnc12` [Example 113] it was 155 nM; in that of `N#Cc1c(N2CCc3c([nH]c4ccccc34)C2)ccn2c(CC(F)(F)F)cnc12` [Example 117], 692 nM.
